Drawing on patent US9938261B2, “Heterocyclic compounds and methods of use thereof” (AMBIT BIOSCIENCES CORPORATION, priority 2011, dated 2018), this text covers IC50 and Kd for 21 compounds.

As a reminder, the IC50 is the midpoint of a concentration-inhibition curve. By Kd is commonly meant the free concentration of one partner at which half of the binding sites on the other are occupied at equilibrium, for simple one-to-one binding. Lower therefore signals tighter binding.

Each structure is given as a SMILES string. Like-named read-outs stand apart in the source and are kept apart here.

Test [1] has as its target CSF1R (Homo sapiens, UniProt P07333). The test is described as follows: HEK293 CSF1R phosphorylation MSD assay. Format: cell-based. On the set-up: expressed in transfected cells; host or cells: HEK293. As to conditions: read-out: HEK293 pCSF1R M-CSF MSD:IC50. The gist of the method: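 Ligand-induced CSF1R autophosphorylation was measured by MSD sandwich assay: CSF1R-FKBP from lysates captured via FK506, anti-phosphotyrosine readout. Cells were exposed to compound for 2 h (9-point, half-log, 0.5% DMSO) before 5 min 50 ng/mL M-CSF. Reported IC50 is the mean of duplicate-plate IC50s relative to DMSO control.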

Test [2] concerns the target T1, FLT3 (Homo sapiens, UniProt P36888).
T1 construct: made in house
T1 sequence (P36888 27-993): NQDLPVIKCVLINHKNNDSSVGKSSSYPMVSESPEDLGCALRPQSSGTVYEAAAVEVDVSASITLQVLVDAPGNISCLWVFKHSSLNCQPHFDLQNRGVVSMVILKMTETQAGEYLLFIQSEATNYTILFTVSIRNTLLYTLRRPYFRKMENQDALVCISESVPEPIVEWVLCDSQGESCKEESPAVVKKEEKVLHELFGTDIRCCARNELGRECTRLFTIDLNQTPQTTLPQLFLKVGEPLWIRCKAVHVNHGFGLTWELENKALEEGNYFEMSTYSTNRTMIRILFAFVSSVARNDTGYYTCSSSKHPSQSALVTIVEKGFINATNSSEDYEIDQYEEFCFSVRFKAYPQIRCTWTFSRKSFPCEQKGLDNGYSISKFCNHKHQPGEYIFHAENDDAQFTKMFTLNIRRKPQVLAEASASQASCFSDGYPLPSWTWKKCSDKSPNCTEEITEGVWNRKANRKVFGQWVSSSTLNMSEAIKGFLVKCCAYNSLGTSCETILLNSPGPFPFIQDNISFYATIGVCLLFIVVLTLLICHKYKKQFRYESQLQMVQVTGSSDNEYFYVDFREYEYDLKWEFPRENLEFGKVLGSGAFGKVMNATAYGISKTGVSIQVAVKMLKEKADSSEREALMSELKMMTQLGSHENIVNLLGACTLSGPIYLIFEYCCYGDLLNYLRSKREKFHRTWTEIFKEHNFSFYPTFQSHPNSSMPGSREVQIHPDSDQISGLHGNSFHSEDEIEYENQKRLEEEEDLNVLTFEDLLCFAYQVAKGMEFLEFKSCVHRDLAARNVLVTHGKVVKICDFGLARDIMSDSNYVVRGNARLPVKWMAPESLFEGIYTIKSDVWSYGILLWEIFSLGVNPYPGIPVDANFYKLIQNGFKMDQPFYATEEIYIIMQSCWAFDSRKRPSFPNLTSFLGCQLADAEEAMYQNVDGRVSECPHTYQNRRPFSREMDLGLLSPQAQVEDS
The test is described as follows: Competition binding assay, FLT3 Kd. In short, it runs like this:
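Kd values came from eleven-point threefold dilutions of compound, measured by qPCR of kinase eluted from affinity-ligand beads after 1 h equilibrium binding at room temperature. Kinase was either T7-phage fused or HEK-293-expressed with a DNA tag.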

Where [3] appears, read: 2 h compound, human M-CSF 50 ng/mL for 5 min.
Setting [4] is: HEK293 cells, M-CSF stimulated CSF1R phosphorylation, MSD.

CSF1R, sequence (P07333 20-972): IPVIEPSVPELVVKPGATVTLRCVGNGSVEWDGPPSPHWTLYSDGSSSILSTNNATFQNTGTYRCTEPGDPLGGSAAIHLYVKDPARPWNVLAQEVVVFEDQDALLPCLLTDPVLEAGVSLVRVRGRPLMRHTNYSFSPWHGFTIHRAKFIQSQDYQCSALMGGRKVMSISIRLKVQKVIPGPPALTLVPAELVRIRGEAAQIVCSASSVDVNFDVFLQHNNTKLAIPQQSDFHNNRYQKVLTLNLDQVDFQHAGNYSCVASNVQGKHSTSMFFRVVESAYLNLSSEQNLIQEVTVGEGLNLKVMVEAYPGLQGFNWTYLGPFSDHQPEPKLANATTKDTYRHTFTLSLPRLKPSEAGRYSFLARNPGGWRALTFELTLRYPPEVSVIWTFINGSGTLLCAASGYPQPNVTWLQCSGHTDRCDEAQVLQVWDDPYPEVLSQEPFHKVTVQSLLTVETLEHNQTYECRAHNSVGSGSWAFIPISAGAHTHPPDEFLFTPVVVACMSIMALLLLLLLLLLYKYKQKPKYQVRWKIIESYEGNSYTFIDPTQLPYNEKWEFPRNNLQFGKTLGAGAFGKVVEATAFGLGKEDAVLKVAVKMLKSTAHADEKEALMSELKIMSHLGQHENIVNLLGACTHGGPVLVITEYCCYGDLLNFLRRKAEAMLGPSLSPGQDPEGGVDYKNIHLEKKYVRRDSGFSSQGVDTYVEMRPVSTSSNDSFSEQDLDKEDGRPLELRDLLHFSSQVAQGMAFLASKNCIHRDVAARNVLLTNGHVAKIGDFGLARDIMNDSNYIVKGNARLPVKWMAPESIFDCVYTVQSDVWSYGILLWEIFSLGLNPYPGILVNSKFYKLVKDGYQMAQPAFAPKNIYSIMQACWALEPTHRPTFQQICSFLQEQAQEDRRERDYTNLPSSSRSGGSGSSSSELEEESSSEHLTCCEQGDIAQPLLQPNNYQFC

As for `CC(=O)NCc1cnc2c(c1)ncn2Cc1ccc2nc(N[C@@H]3CCCC[C@H]3O)sc2c1` [Example 99, N-((3-((2-(((1R,2R)-2-hydroxycyclohexyl)amino)benzo[d]thiazol-6-yl)methyl)-3H-imidazo[4,5-b]pyridin-6-yl)methyl)acetamide], the 50% inhibitory concentration (IC50) in test [1] (setting [3]) was 200 to 500 nM. The compound also came in with a Kd in test [2] of 1000 to 5000 nM.

With `O[C@@H]1CCCC[C@H]1Nc1nc2ccc(Cn3cnc4cc(Br)ccc43)cc2s1` [Example 100, (1R,2R)-2-((6-((5-bromo-1H-benzo[d]imidazol-1-yl)methyl)benzo[d]thiazol-2-yl)amino)cyclohexanol], in test [1] (setting [3]), the half-inhibitory concentration (IC50) was 50 to 200 nM. For the same compound, the dissociation constant (Kd) in test [2] fell in the range of 1000 to 5000 nM.

As for `CC(=O)Nc1cn(Cc2ccc3nc(N[C@@H]4CCCC[C@H]4O)sc3c2)cn1` [Example 101, N-(1-((2-(((1R,2R)-2-hydroxycyclohexyl)amino)benzo[d]thiazol-6-yl)methyl)-1H-imidazol-4-yl)acetamide], the IC50 in test [1] (setting [3]) fell in the range of 50 to 200 nM. The compound further displayed a Kd in test [2] of 200 to 1000 nM.

As to `CCc1cnc2c(c1)ncn2Cc1ccc2nc(N[C@@H]3CCCC[C@H]3O)sc2c1` [Example 102, (1R,2R)-2-((6-((6-ethyl-3H-imidazo[4,5-b]pyridin-3-yl)methyl)benzo[d]thiazol-2-yl)amino)cyclohexanol], in test [1] (setting [3]), the IC50 was no more than 50 nM. For the same compound, the dissociation constant Kd in test [2] lay in the range of 200 to 1000 nM.

For the compound `CS(=O)(=O)c1ccc2ncn(Cc3ccc4nc(N[C@@H]5CCCC[C@H]5O)sc4c3)c2n1` [Example 106, (1R,2R)-2-((6-((5-(methylsulfonyl)-3H-imidazo[4,5-b]pyridin-3-yl)methyl)benzo[d]thiazol-2-yl)amino)cyclohexanol], the IC50 in test [1] (setting [4]) was greater than 500 nM. This compound also gave a Kd in test [2] (competition binding) of 200 to 1000 nM.

In the case of `O[C@@H]1CCCC[C@H]1Nc1nc2ccc(Cn3cnc4ccc(Br)cc43)cc2s1` [Example 107, (1R,2R)-2-((6-((6-bromo-1H-benzo[d]imidazol-1-yl)methyl)benzo[d]thiazol-2-yl)amino)cyclohexanol], the half-inhibitory concentration (IC50) in test [1] (setting [4]) lay in the range of 50 to 200 nM. In addition, in test [2] (competition binding), the Kd lay within 1000 to 5000 nM.

Consider `N#CCOc1ccc2c(c1)ncn2Cc1ccc2nc(N[C@@H]3CCCC[C@H]3O)sc2c1` [Example 196, 2-((1-((2-(((1R,2R)-2-hydroxycyclohexyl)amino)benzo[d]thiazol-6-yl)methyl)-1H-benzo[d]imidazol-5-yl)oxy)acetonitrile], for which the 50% inhibitory concentration (IC50) in test [1] (setting [4]) was no more than 50 nM. Besides, in test [2] (competition binding), the dissociation constant (Kd) was in the range of 200 to 1000 nM.

On to `Fc1cnc2c(c1)ncn2Cc1ccc2nc(N[C@@H]3CCCC[C@H]3Cl)sc2c1` [Example 198, N-((1R,2R)-2-chlorocyclohexyl)-6-((6-fluoro-3H-imidazo[4,5-b]pyridin-3-yl)methyl)benzo[d]thiazol-2-amine], for which the IC50 in test [1] (setting [4]) is 200 to 500 nM. Besides, in test [2] (competition binding), the dissociation constant Kd is 1000 to 5000 nM.

As for `OC1CCN(c2ccn3c(Cc4ccc5nc(N[C@@H]6CCCC[C@H]6O)sc5c4)cnc3c2)CC1` [Example 199, 1-(3-((2-(((1R,2R)-2-hydroxycyclohexyl)amino)benzo[d]thiazol-6-yl)methyl)imidazo[1,2-a]pyridin-7-yl)piperidin-4-ol], the IC50 in test [1] (setting [4]) was 200 to 500 nM. In test [2] (competition binding), the Kd is greater than 5000 nM.

As for `CC(=O)c1ccn2c(Cc3ccc4nc(N[C@@H]5CCCC[C@H]5O)sc4c3)cnc2c1` [Example 200, 1-(3-((2-(((1R,2R)-2-hydroxycyclohexyl)amino)benzo[d]thiazol-6-yl)methyl)imidazo[1,2-a]pyridin-7-yl)ethanone], the IC50 in test [1] (setting [4]) was 50 to 200 nM. The compound further had a dissociation constant (Kd) in test [2] (competition binding) greater than 5000 nM.

On to `CC(O)c1ccn2c(Cc3ccc4nc(N[C@@H]5CCCC[C@H]5O)sc4c3)cnc2c1` (stereo partly drawn) [Example 201, (1R,2R)-2-((6-((7-(1-hydroxyethyl)imidazo[1,2-a]pyridin-3-yl)methyl)benzo[d]thiazol-2-yl)amino)cyclohexanol], for which the IC50 in test [1] (setting [4]) was in the range of 200 to 500 nM. In test [2] (competition binding), this compound yielded a dissociation constant (Kd) of 1000 to 5000 nM.

Take `CC(=NO)c1ccn2c(Cc3ccc4nc(N[C@@H]5CCCC[C@H]5O)sc4c3)cnc2c1` [Example 202, 1-(3-((2-(((1R,2R)-2-hydroxycyclohexyl)amino)benzo[d]thiazol-6-yl)methyl)imidazo[1,2-a]pyridin-7-yl)ethanone oxime]: the IC50 in test [1] (setting [4]) fell in the range of 50 to 200 nM. For the same compound, in test [2] (competition binding), the Kd was in the range of 1000 to 5000 nM.

For the compound `O[C@@H]1CCCC[C@H]1Nc1nc2ccc(Cn3cnc4cc(Br)cc(F)c43)cc2s1` [Example 203, (1R,2R)-2-((6-((5-bromo-7-fluoro-1H-benzo[d]imidazol-1-yl)methyl)benzo[d]thiazol-2-yl)amino)cyclohexanol], in test [1] (setting [4]), the half-inhibitory concentration (IC50) was in the range of 50 to 200 nM. In test [2] (competition binding), this compound showed a Kd of 200 to 1000 nM.

`CON=C(C)c1ccn2c(Cc3ccc4nc(N[C@@H]5CCCC[C@H]5O)sc4c3)cnc2c1` [Example 204, 1-(3-((2-(((1R,2R)-2-hydroxycyclohexyl)amino)benzo[d]thiazol-6-yl)methyl)imidazo[1,2-a]pyridin-7-yl)ethanone O-methyl oxime]: in test [1] (setting [4]), the concentration for half-maximal inhibition (IC50) lay within 50 to 200 nM. The same compound returned a Kd in test [2] (competition binding) of 1000 to 5000 nM.

Regarding `O[C@@H]1CCCC[C@H]1Nc1nc2ccc(Cc3cnc4[nH]c5ccccc5n34)cc2s1` [Example 205, (1R,2R)-2-((6-((9H-benzo[d]imidazo[1,2-a]imidazol-3-yl)methyl)benzo[d]thiazol-2-yl)amino)cyclohexanol], in test [1] (setting [4]), the half-inhibitory concentration (IC50) is greater than 500 nM. The compound also had a dissociation constant (Kd) in test [2] (competition binding) of 200 to 1000 nM.

In the case of `N#Cc1cc(F)c2c(c1)ncn2Cc1ccc2nc(N[C@@H]3CCCC[C@H]3O)sc2c1` [Example 206, 7-fluoro-1-((2-(((1R,2R)-2-hydroxycyclohexyl)amino)benzo[d]thiazol-6-yl)methyl)-1H-benzo[d]imidazole-5-carbonitrile], in test [1] (setting [4]), the IC50 fell in the range of 50 to 200 nM. In test [2] (competition binding), this compound came in with a Kd of 200 to 1000 nM.

On to `C=Cc1cc(F)c2c(c1)ncn2Cc1ccc2nc(N[C@@H]3CCCC[C@H]3O)sc2c1` [Example 207, (1R,2R)-2-((6-((7-fluoro-5-vinyl-1H-benzo[d]imidazol-1-yl)methyl)benzo[d]thiazol-2-yl)amino)cyclohexanol], for which the 50% inhibitory concentration (IC50) in test [1] (setting [4]) lay in the range of 50 to 200 nM. Further, in test [2] (competition binding), the dissociation constant Kd is no more than 200 nM.

For the compound `O[C@@H]1CCCC[C@H]1Nc1nc2ccc(Cn3cnc4cc(C5=CCOCC5)cc(F)c43)cc2s1` [Example 208, (1R,2R)-2-((6-((5-(3,6-dihydro-2H-pyran-4-yl)-7-fluoro-1H-benzo[d]imidazol-1-yl)methyl)benzo[d]thiazol-2-yl)amino)cyclohexanol], the IC50 in test [1] (setting [4]) lay in the range of 50 to 200 nM. Besides, in test [2] (competition binding), the dissociation constant (Kd) is no more than 200 nM.

For `O[C@@H]1CCCC[C@H]1Nc1nc2ccc(Cn3cnc4cc(N5CCOCC5)ccc43)cc2s1` [Example 209, (1R,2R)-2-((6-((5-morpholino-1H-benzo[d]imidazol-1-yl)methyl)benzo[d]thiazol-2-yl)amino)cyclohexanol], the IC50 in test [1] (setting [4]) lay within 50 to 200 nM. In addition, in test [2] (competition binding), the Kd is 200 to 1000 nM.

For `O=C1CCCCN1c1ccc2c(c1)ncn2Cc1ccc2nc(N[C@@H]3CCCC[C@H]3O)sc2c1` [Example 210, 1-(1-((2-(((1R,2R)-2-hydroxycyclohexyl)amino)benzo[d]thiazol-6-yl)methyl)-1H-benzo[d]imidazol-5-yl)piperidin-2-one], the half-maximal inhibitory concentration (IC50) in test [1] (setting [4]) lay within 200 to 500 nM. Moreover, the equilibrium dissociation constant (Kd) in test [2] (competition binding) was greater than 5000 nM.

Turning to `O[C@@H]1CCCC[C@H]1Nc1nc2ccc(Cn3cnc4cc(-c5cc[nH]n5)ccc43)cc2s1` [Example 211, (1R,2R)-2-((6-((5-(1H-pyrazol-3-yl)-1H-benzo[d]imidazol-1-yl)methyl)benzo[d]thiazol-2-yl)amino)cyclohexanol], in test [1] (setting [4]), the 50% inhibitory concentration (IC50) is no more than 50 nM. In test [2] (competition binding), this compound showed a dissociation constant Kd of no more than 200 nM.
